Assay results published in patent US20090239845A1, “PYRAZOLE COMPOUNDS AS PROSTAGLANDIN RECEPTORS LIGANDS” (priority 2005, published 2009).
Structures can show the parent of a compound that is named as a salt.

target: T1, human EP1 receptor (Homo sapiens, UniProt P34995); assay: human EP1 calcium mobilisation assay; type: cell-based; conditions: negative logarithm10 of the antagonist dissociation constant; CHO-K1 cells, PGE2; free bases or sodium salts; averages of a number of experiments; read-out: functional pKi value (converted)
T1 construct: expressed in transfected cells; host or cells: CHO-K1
T1 sequence (P34995 1-402): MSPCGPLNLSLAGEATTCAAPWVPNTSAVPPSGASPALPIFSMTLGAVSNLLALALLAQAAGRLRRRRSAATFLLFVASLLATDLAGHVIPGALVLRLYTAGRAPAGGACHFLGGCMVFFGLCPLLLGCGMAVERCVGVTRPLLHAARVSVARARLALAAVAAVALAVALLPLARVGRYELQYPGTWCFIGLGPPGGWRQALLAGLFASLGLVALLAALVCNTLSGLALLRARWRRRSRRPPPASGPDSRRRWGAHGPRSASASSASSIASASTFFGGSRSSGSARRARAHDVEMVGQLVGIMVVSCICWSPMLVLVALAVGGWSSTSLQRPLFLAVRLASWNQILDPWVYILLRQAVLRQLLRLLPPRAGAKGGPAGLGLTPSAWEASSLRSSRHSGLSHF
Protocol: Briefly, the antagonist properties of compounds are assessed by their ability to inhibit the mobilisation of intracellular calcium ([Ca^2+]i) in response to activation of EP1 or EP3 receptors by the natural agonist hormone prostaglandin E2 (PGE2). Increasing concentrations of antagonist reduce the amount of calcium that a given concentration of PGE2 can mobilise. The net effect is to displace the PGE2 concentration-effect curve to higher concentrations of PGE2. The amount of calcium produced is assessed using a calcium-sensitive fluorescent dye such as Fluo-4, AM and a suitable instrument such as a Fluorimetric Imaging Plate Reader (FLIPR). Increasing amounts of [Ca^2+]i produced by receptor activation increase the amount of fluorescence produced by the dye and give rise to an increasing signal. The signal may be detected using the FLIPR instrument and the data generated may be analysed with suitable curve-fitting software.
The human EP1 or EP3 calcium mobilisation assay (hereafter referred to as ‘the calcium assay’) utilises Chinese hamster ovary-K1 (CHO-K1) cells into which a stable (pCIN; BioTechniques 20 (1996): 102-110) vector containing either EP1 or EP3 cDNA has previously been transfected. Cells are cultured in suitable flasks containing culture medium such as DMEM:F-12 supplemented with 10% v/v foetal calf serum, 2 mM L-glutamine, 0.25 mg/ml geneticin, 100 μM flurbiprofen and 10 μg/ml puromycin.
For assay, cells are harvested using a proprietary reagent that dislodges cells such as Versene. Cells are re-suspended in a suitable quantity of fresh culture media for introduction into a 384-well plate. Following incubation for 24 hours at 37° C. the culture media is replaced with a medium containing Fluo-4 and the detergent pluronic acid, and a further incubation takes place. Concentrations of compounds are then added to the plate in order to construct concentration-effect curves. This may be performed on the FLIPR in order to assess the agonist properties of the compounds. Concentrations of PGE2 are then added to the plate in order to assess the antagonist properties of the compounds.
The data so generated may be analysed by means of a computerised curve-fitting routine. The concentration of compound that elicits a half-maximal inhibition of the calcium mobilisation induced by PGE2 (plC50) may then be estimated.

Ki, > 1000 nM:
Cc1cc(NC(=O)Cc2cccnc2)nn1Cc1cc(Cl)ccc1OCc1ccccc1 [Example 148, N-[1-({5-Chloro-2-[(phenylmethyl)oxy]phenyl}methyl)-5-methyl-1H-pyrazol-3-yl]-2-(3-pyridinyl)-acetamide]
Cc1cc(NC(=O)Cc2ccncc2)nn1Cc1cc(Cl)ccc1OCc1ccccc1 [Example 149, N-[1-({5-Chloro-2-[(phenylmethyl)oxy]phenyl}methyl)-5-methyl-1H-pyrazol-3-yl]-2-(4-pyridinyl)-acetamide]
Cc1cc(N2CCN(CC3CCCCC3)CC2=O)nn1Cc1cc(Cl)ccc1OCc1ccccc1 [Example 249, 1-[1-({5-Chloro-2-[(phenylmethyl)oxy]phenyl}methyl)-5-methyl-1H-pyrazol-3-yl]-4-(cyclohexylmethyl)-2-piperazinone hydrochloride]
Cc1cc(N2CCN(Cc3ccc(Cl)cc3)CC2=O)nn1Cc1cc(Cl)ccc1OCC1CCCCO1 (centres unmarked) [Example 284, 4-[(4-Chlorophenyl)methyl]-1-[1-({5-chloro-2-[(tetrahydro-2H-pyran-2-ylmethyl)oxy]phenyl}methyl)-5-methyl-1H-pyrazol-3-yl]-2-piperazinone]
Cc1cc(N2CCN(Cc3ccccc3)CC2)nn1Cc1cc(Cl)ccc1OCc1ccccc1 [Example 288, 4-[1-({5-Chloro-2-[(phenylmethyl)oxy]phenyl}methyl)-5-methyl-1H-pyrazol-3-yl]-1-(phenylmethyl)piperazin-1-ium chloride]
Cc1cc(C(=O)NC(C)C)nn1Cc1cc(Cl)ccc1OCc1ccccc1 [Example 290, 1-({5-Chloro-2-[(phenylmethyl)oxy]phenyl}methyl)-5-methyl-N-(1-methylethyl)-1H-pyrazole-3-carboxamide]
Cc1cc(C(=O)Nc2ccccc2)nn1Cc1cc(Cl)ccc1OCc1ccccc1 [Example 291, 1-({5-Chloro-2-[(phenylmethyl)oxy]phenyl}methyl)-5-methyl-N-phenyl-1H-pyrazol-3-carboxamide]
Cc1cc(C(=O)NCc2ccccc2)nn1Cc1cc(Cl)ccc1OCc1ccccc1 [Example 292, 1-({5-Chloro-2-[(phenylmethyl)oxy]phenyl}methyl)-5-methyl-N-(phenylmethyl)-1H-pyrazol-3-carboxamide]
Cc1cc(C(=O)NCc2cccnc2)nn1Cc1cc(Cl)ccc1OCc1ccccc1 [Example 294, 1-({5-Chloro-2-[(phenylmethyl)oxy]phenyl}methyl)-5-methyl-N-(3-pyridinylmethyl)-1H-pyrazole-3-carboxamide]
CNC(=O)c1cc(C)n(Cc2cc(Cl)ccc2OCc2ccccc2)n1 [Example 296, 1-({5-Chloro-2-[(phenylmethyl)oxy]phenyl}methyl)-N,5-dimethyl-1H-pyrazole-3-carboxamide]
Cc1cc(C(=O)Nc2ccccn2)nn1Cc1cc(Cl)ccc1OCc1ccccc1 [Example 297, 1-({5-Chloro-2-[(phenylmethyl)oxy]phenyl}methyl)-5-methyl-N-2-pyridinyl-1H-pyrazole-3-carboxamide]
Cc1cc(C(=O)Nc2ccccc2Cl)nn1Cc1cc(Cl)ccc1OCc1ccccc1 [Example 300, N-(2-Chlorophenyl)-1-({5-chloro-2-[(phenylmethyl)oxy]phenyl}methyl)-5-methyl-1H-pyrazole-3-carboxamide]
Cc1cc(C(=O)Nc2ccccc2C#N)nn1Cc1cc(Cl)ccc1OCc1ccccc1 [Example 304, 1-({5-Chloro-2-[(phenylmethyl)oxy]phenyl}methyl)-N-(2-cyanophenyl)-5-methyl-1H-pyrazole-3-carboxamide]
Cc1cc(C(=O)Nc2ccc(C#N)cc2)nn1Cc1cc(Cl)ccc1OCc1ccccc1 [Example 306, 1-({5-Chloro-2-[(phenylmethyl)oxy]phenyl}methyl)-N-(4-cyanophenyl)-5-methyl-1H-pyrazole-3-carboxamide]
Cc1cc(C(=O)NCc2ccccn2)nn1Cc1cc(Cl)ccc1OCc1cc(F)c(F)cc1F [Example 338, 1-[(5-Chloro-2-{[(2,4,5-trifluorophenyl)methyl]oxy}phe-nyl)methyl]-5-methyl-N-(2-pyridinylmethyl)-1H-pyrazole-3-carboxamide]
Cc1cc(C(=O)NCc2ccccn2)nn1Cc1cc(Cl)ccc1OCc1ccc(F)c(F)c1F [Example 339, 1-[(5-Chloro-2-{[(2,3,4-trifluoro-phenyl)methyl]oxy}phe-nyl)methyl]-5-methyl-N-(2-pyridinylmethyl)-1H-pyrazole-3-carboxamide]
Cc1cc(C(=O)NCc2ccccn2)nn1Cc1cc(Cl)ccc1OCc1ccc(Cl)cc1F [Example 340, 1-[(5-Chloro-2-{[(4-chloro-2-fluorophenyl)methyl]oxy}phe-nyl)methyl]-5-methyl-N-(2-pyridinylmethyl)-1H-pyrazole-3-carboxamide]
Cc1cc(S(=O)(=O)NC(=O)c2ccccc2)nn1Cc1cc(Cl)ccc1OCc1ccccc1 [Example 359, N-{[1-({5-Chloro-2-[(phenylmethyl)oxy]phenyl}methyl)-5-methyl-1H-pyrazol-3-yl]sulfonyl}benzamide]
Cc1cc(-c2nc3nccnc3[nH]2)nn1Cc1cc(Cl)ccc1OCc1ccccc1 [Example 368, 2-[1-({5-Chloro-2-[(phenylmethyl)oxy]phenyl}methyl)-5-methyl-1H-pyrazol-3-yl]-1H-imidazo[4,5-b]pyrazine hydrochloride]
Cc1cc(-c2nc3nccnc3[nH]2)nn1Cc1cc(Cl)ccc1OCC(C)C [Example 371, 2-[1-({5-Chloro-2-[(2-methylpropyl)oxy]phenyl}methyl)-5-methyl-1H-pyrazol-3-yl]-1H-imidazo[4,5-b]pyrazine hydrochloride]
Cc1cc(-c2nc3cc(F)c(F)cc3[nH]2)nn1Cc1cc(Cl)ccc1OCC(C)C [Example 376, 2-[1-({5-Chloro-2-[(2-methylpropyl)oxy]phenyl}methyl)-5-methyl-1H-pyrazol-3-yl]-5,6-difluoro-1H-benzimidazole]
Cc1cc(-c2nc3ccccc3[nH]2)nn1Cc1cc(Cl)ccc1OCc1ccccc1 [Example 385, 2-[1-({5-Chloro-2-[(phenylmethyl)oxy]phenyl}methyl)-5-methyl-1H-pyrazol-3-yl]-1H-benzimidazole]
CNCc1ccc(NC(=O)c2cc(C)n(Cc3cc(Cl)ccc3OCC(C)C)n2)c(OC)c1 [Example 412, 1-({5-Chloro-2-[(2-methylpropyl)oxy]phenyl}methyl)-5-methyl-N-[4-[(methylamino)methyl]-2-(methyloxy)phenyl]-1H-pyrazole-3-carboxamide hydrochloride]
CCN(CC)Cc1ccc(C(=O)Nc2cc(C)n(Cc3cc(Cl)ccc3OCC(C)C)n2)cc1F [Example 435, N-[1-({5-chloro-2-[(2-methylpropyl)oxy]phenyl}methyl)-5-methyl-1H-pyrazol-3-yl]-4-[(diethylamino)methyl]-3-fluorobenzamide hydrochloride]
Cc1cc(NC(=O)c2ccc(CN3CCCCC3)c(F)c2)nn1Cc1cc(Cl)ccc1OCC(C)C [Example 436, N-[1-({5-chloro-2-[(2-methylpropyl)oxy]phenyl}methyl)-5-methyl-1H-pyrazol-3-yl]-3-fluoro-4-(1-piperidinylmethyl)benzamide hydrochloride]
Cc1cc(NC(=O)c2ccc(CNCC(C)C)c(F)c2)nn1Cc1cc(Cl)ccc1OCC(C)C [Example 438, N-[1-({5-chloro-2-[(2-methylpropyl)oxy]phenyl}methyl)-5-methyl-1H-pyrazol-3-yl]-3-fluoro-4-{[(2-methylpropyl)amino]methyl}benzamide hydrochloride]
